Measurements: US10265329B2, “Altering steroid metabolism for treatment of steroid-dependent disease” (THE CLEVELAND CLINIC FOUNDATION, priority 2015, dated 2019)

What was measured:
LNCaP cells = test: Cell proliferation assay, DHT-stimulated growth; type: cell-based, human; settings: DHT 0.5 nM, 2, 4 and 6 days
Method: LNCaP cells (0.1 million/mL) were seeded in 96-well plates and cultured in phenol red free RPMI-1640 mediums plus 10% charcoal stripped FBS with androgens and/or drugs. Medium was changed every other day. After 2, 4 or 6 days, cells were collected and lysed after treatment. Growth was then determined based on DNA content as detected by Hoechst stain and a Wallac Victor2 1420 Multilabel counter (Perkin Elmer). Two-tailed student's t-test was used to determine significance.

SRD5A = target: T1, SRD5A (Homo sapiens, UniProt P18405); test: Conversion of [3H]-AD to 5α-reduced androgens in LAPC4 cells; type: cell-based; settings: up to 100 μM; LAPC4 cells
T1 construct: endogenous in cells; host or cells: LAPC4
T1 sequence (P18405 1-259): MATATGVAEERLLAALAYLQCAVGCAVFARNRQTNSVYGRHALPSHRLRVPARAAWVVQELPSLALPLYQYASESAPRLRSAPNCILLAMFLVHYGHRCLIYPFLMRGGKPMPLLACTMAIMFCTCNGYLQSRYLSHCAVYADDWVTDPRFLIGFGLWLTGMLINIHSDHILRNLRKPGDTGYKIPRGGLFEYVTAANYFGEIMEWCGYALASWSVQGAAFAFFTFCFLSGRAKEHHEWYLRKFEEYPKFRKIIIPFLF
Method: (§1) Cell Line Metabolism: Cells were seeded and incubated in 12-well plates with 0.2 million cells/well for ˜24 h and then incubated with a mixture of radioactive ([^3H]-labeled) and non-radioactive androgens (final concentration, 100 nM; ˜1,000,000 cpm/well; PerkinElmer, Waltham, Mass.) at 37° C. Aliquots of medium were collected at the indicated times. Collected medium was treated with 1,000 units of β-glucuronidase (Helix pomatia; Sigma-Aldrich) at 65° C. for 2 h, extracted with 860 μL ethyl acetate:isooctane (1:1), and concentrated under nitrogen gas. Xenograft Metabolism: 10^7 LNCaP or VCaP cells were injected subcutaneously with Matrigel into surgically orchiectomized NSG mice that were implanted with 5 mg 90-day sustained-release DHEA pellets (Innovative Research of American, Sarasota, Fla.). Xenografts were harvested when they reached 1000 mm^3, minced, and cultured in DMEM with 10% FBS at 37° C. with mixture of radioactive ([^3H]-labeled) and non-radioactive androgens, or Abi, when they reached 1000 mm^3. Each xenograft was analyzed in triplicate in at least three independent experiments. Aliquots of medium were collected at the indicated times. Collected medium was treated with 1,000 units of β-glucuronidase at 65° C. for 2 h, extracted with 860 μL ethyl acetate:isooctane (1:1), and concentrated under nitrogen gas.
Dried samples were reconstituted in 50% methanol and injected into the HPLC. Steroids and drug metabolites were separated on Kinetex 100×2.1 mm, 2.6 μm particle size C18 reverse-phase column (Phenomenex, Torrance, Calif.) using a methanol/water gradient at 30° C. […] Alternatively, dried samples were applied to plastic-backed silica gel plates and separated by thin-layer chromatography (TLC) using a mobile phase of 3:1 chloroform:ethyl acetate, followed by exposure of the plates to a phosphorimager screen and quantitated with a Storm model 860 phosphorimager (Applied Biosystems, Foster City, Calif.). […] Results are shown as mean±SD.
Collected medium was treated with β-glucuronidase (Helix pomatia; Sigma-Aldrich), extracted with ethyl acetate:isooctane (1:1), and concentrated under nitrogen gas as described. Li et al., 523, 347-351 (2015).
Dried samples were reconstituted in 50% methanol and separated on Kinetex 100×2.1 mm, 2.6 μm particle size C18 reverse-phase column (Phenomenex, Torrance, Calif.) using a methanol/water gradient at 30° C. […] Results are shown as mean±SD.

SRD5A1 = target: T2, SRD5A1 (Homo sapiens, UniProt P18405); settings: LAPC4 cells
T2 sequence (P18405 1-259): T1 sequence (P18405 1-259)
Method: Cell Line Metabolism: 0.2 million/ml cells were seeded and incubated in 12-well plates for ˜24 h before incubation with the indicated drugs or a mixture of [^3H]-labeled (˜1,000,000 cpm/well; PerkinElmer, Waltham, Mass.) and non-radioactive androgens (final concentration, 100 nM) at 37° C. Collected medium was treated with β-glucuronidase (Helix pomatia; Sigma-Aldrich), extracted with ethyl acetate:isooctane (1:1), and concentrated under nitrogen gas as described.
Dried samples were reconstituted in 50% methanol and separated on Kinetex 100×2.1 mm, 2.6 μm particle size C18 reverse-phase column (Phenomenex, Torrance, Calif.) using a methanol/water gradient at 30° C. The column effluent was analyzed using a 254 nm UV-visible detector or β-RAM model 3 in-line radioactivity detector (IN/US Systems, Inc.) using Liquiscint scintillation cocktail (National Diagnostics, Atlanta, Ga.). All HPLC studies were conducted in triplicate and repeated at least 3 times in independent experiments. Results are shown as mean±SD.

[1] = Phase II clinical trial NCT01393730: serum Abi metabolites before and after dutasteride; type: in vivo, human
Method: Twelve patients with CRPC undergoing treatment with Abi acetate at Cleveland Clinic were consented under an Institutional Review Board—approved protocol (Case 7813). Blood was collected using Vacutainer Plus serum blood collection tubes (#BD367814, Becton Dickenson, Franklin Lakes, N.J.), between 1 and 16 hours after the 1000 mg daily dose of Abi acetate was administered, and allowed to clot. Tubes were centrifuged at 2500 RPM or 1430×g for 10 minutes. Serum aliquots were frozen at −80° C. until processing. To study the effect of dutasteride on Abi metabolism, serum samples were collected from patients treated on a phase II clinical trial at Dana-Farber Cancer Institute (NCT01393730). Each patient received Abi acetate (1,000 mg daily) plus prednisone (5 mg daily) for 2 cycles (8 weeks) and then additional treatment with dutasteride ([…]) was initiated. Samples were collected on treatment with Abi alone and after addition of dutasteride (start of cycles 3, 4 and 7). Seventeen patients treated at this institution on this clinical trial had blood available from all 3 time points. One patient had Abi concentrations that were under the limit of detection and was later determine to have stopped treatment because of adverse effects and was therefore not included in the analysis. Drug metabolites and internal standard (d4-abiraterone, Toronto Research Chemicals Inc, Ontario Canada) were extracted from 100 μL of patient serum with methyl tert-butyl ether (Sigma Aldrich, St. Louis, Mo.), evaporated under a stream of nitrogen gas and reconstituted in methanol:water (50:50) prior to mass spectrometry analysis. Standard curves were generated using human serum spiked with known concentrations of each metabolite to enable determination of unknown concentrations in patient samples
Samples were analyzed on a ultra high-performance liquid chromatography station (Shimadzu, Kyoto, Japan) with a DGU-20A3R degasser, 2 LC-30AD pumps, a SIL-30AC autosampler, a CTO-10A column oven and a CBM-20A system controller in tandem with a QTRAP 5500 mass spectrometer (AB Sciex, Framingham, Mass.). Drug metabolites were ionized using electrospray ionization in positive ion mode. Multiple reaction monitoring was used to follow mass transitions for Abi, IS, and the metabolites (Table 1). Due to the similarity in structure and mass transitions for the metabolites it was necessary to separate them with chromatography. Separation of drug metabolites was achieved using a mobile phase consisting of LC-MS grade (Fisher) methanol: acetonitrile: water:formic acid (39:26:34:1) at a flow rate of 0.2 ml/min., and C18 analytical column; Zorbax Eclipse plus 150×2.1 mm, 3.5 μm (Agilent, Santa Clara, Calif.).

[2] = patients; wide interpatient variability; cited from earlier work
CYP17A1 = target: T3, CYP17A1 (Homo sapiens, UniProt P05093); test: Conversion of [3H]-pregnenolone to DHEA in 293 cells expressing CYP17A1; type: cell-based; settings: 1 nM drug; 3 h incubation; vehicle 70.1%
T3 construct: expressed in transfected cells
T3 sequence (P05093 1-508): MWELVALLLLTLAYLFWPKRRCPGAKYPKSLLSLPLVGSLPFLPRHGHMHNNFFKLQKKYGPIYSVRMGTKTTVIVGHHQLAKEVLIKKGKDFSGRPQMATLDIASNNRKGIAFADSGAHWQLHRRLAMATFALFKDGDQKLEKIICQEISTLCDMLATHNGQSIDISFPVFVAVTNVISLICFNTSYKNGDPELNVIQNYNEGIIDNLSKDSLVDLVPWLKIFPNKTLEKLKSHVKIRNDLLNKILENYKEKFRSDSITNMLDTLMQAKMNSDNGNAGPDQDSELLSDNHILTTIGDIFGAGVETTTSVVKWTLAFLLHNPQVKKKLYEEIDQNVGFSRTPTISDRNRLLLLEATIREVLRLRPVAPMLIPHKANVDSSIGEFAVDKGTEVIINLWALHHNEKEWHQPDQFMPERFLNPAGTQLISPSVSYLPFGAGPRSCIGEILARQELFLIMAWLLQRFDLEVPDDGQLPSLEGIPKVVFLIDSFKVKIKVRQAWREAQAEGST
Text: LNCaP and VCaP cells were purchased from the American Type Culture Collection (Manassas, Va.) and maintained in RPMI-1640 with 10% FBS. LAPC4 cells were kindly provided by Dr. Charles Sawyers (Memorial Sloan Kettering Cancer Center, New York, N.Y.) and grown in Iscove's Modified Dulbecco's Medium with 10% FBS. C4-2 cells were kindly provided by Dr. Leland Chung (Cedars-Sinai Medical Center, Los Angeles, Calif.) and maintained in RPMI-1640 with 10% FBS. All experiments done with LNCaP and VCaP were done in plates coated with poly-DL-ornithine (Sigma-Aldrich, St. Louis, Mo.). A 293 cell line stably expressing human CYP17A1 was generated by transfection with plasmid pcDNA3-CYP17 (a generous gift of Dr. Walter Miller, University of California, San Francisco) and selection with G418. Cell lines was authenticated by DDC Medical (Fairfield, Ohio) and determined to be […] mycoplasma free with primers.
as §1, with “Collected medium was treated with 1,000 units of β-glucuronidase at 65° C. for 2 h, extracted with 860 μL ethyl acetate:isooctane (1:1), and concentrated under nitrogen gas.” left out
Dried samples were reconstituted in 50% methanol and injected into the HPLC. […] Alternatively, dried samples were applied to plastic-backed silica gel plates and separated by thin-layer chromatography (TLC) using a mobile phase of 3:1 chloroform:ethyl acetate, followed by exposure of the plates to a phosphorimager screen and quantitated with a Storm model 860 phosphorimager (Applied Biosystems, Foster City, Calif.). […]
Cell lines, drugs and constructs. […] Cell lines were authenticated by DDC Medical (Fairfield, Ohio) and determined to be mycoplasma free with primers. […]

CNC(=O)c1ccc(N2C(=S)N(c3ccc(C#N)c(C(F)(F)F)c3)C(=O)C2(C)C)cc1F [enzalutamide, reference compound]
effect on DHT-stimulated cell growth (LNCaP cells): more potent than Abi | effect on conversion from AD to 5α-reduced androgens (SRD5A): no detectable effect

CN1C(=O)CC[C@@H]2c3ccc(Cl)cc3CC[C@H]21 [LY191704]
block of conversion of D4A to 5α-Abi and 3α-OH-5α-Abi (SRD5A1): blocks conversion

C[C@]12C=CC(=O)N[C@@H]1CC[C@@H]1[C@@H]2CC[C@]2(C)[C@@H](C(=O)Nc3cc(C(F)(F)F)ccc3C(F)(F)F)CC[C@@H]12 [dutasteride]
block of conversion of D4A to 5α-Abi and 3α-OH-5α-Abi (SRD5A1): blocks conversion

C[C@]12CC[C@H](O)C[C@@H]1CC[C@@H]1[C@@H]2CC[C@]2(C)C(c3cccnc3)=CC[C@@H]12 [Compound 3β-OH-5α-Abi, 17-(3-pyridyl)-5α-androsta-16-ene-3β-ol]
decline in mean serum concentration after the addition of dutasteride ([1]; cycle 3 vs. cycle 4): 73%

C[C@]12CC[C@H](O)CC1=CC[C@@H]1[C@@H]2CC[C@]2(C)C(c3cccnc3)=CC[C@@H]12 [Abi, Abiraterone, reference compound]
Cmax [2]: ~1000 nM | % conversion to DHEA (CYP17A1): 2.6% | mean serum concentration, cycle 3 ([1]; Abi acetate 1000 mg daily plus prednisone alone, 16 patients): 191.2 nM | mean serum concentration, cycle 4 ([1]; after addition of dutasteride 3.5 mg once daily, 16 patients): 372.4 nM
